For 27 compounds, IC50 results are on record in patent publication US11926614B2, “1,2,4-triazole derivatives as tankyrase inhibitors” (priority 2018, dated 2024).

Molecules are shown by their SMILES. pIC50: −log10 of the molar value. Values joined by “and” are separate entries in the source; they are usually repeats but may differ in a detail not shown here. Equal values may be shown once. Read-outs that look alike come from different tables or passages of the source.

For one assay, the system named is HEK293. Briefly: Cellular IC50 HEK293. The assay is classed as cell-based. The source says:
(§1) XLfit (idbs) was used to determine the IC50-values in inhibition experiments. The following formula was chosen to fit the data points (Langmuir Binding Isotherm): fit=((A+(B*x))+4(C−B)*(1−exp((−1*D)*x)))/D)), res=(y−fit)

The next assay has as its target TNKS2 (Homo sapiens (Human), UniProt Q9H2K2). The assay is described as follows: Biochemical IC50 TNKS2. The conditions noted are these: read-out: Biochemical IC50 TNKS2.
Text: as §1

Setting [1] is: Homo sapiens, HEK293, HEK293; read-out: Cellular IC50 HEK293.
Setting [2] is: Homo sapiens, HEK293; read-out: Cellular IC50 HEK293.
Where [3] appears, read: Homo sapiens, HEK293, read-out: Cellular IC50 HEK293.

Sequence of TNKS2 (Q9H2K2 whole entry): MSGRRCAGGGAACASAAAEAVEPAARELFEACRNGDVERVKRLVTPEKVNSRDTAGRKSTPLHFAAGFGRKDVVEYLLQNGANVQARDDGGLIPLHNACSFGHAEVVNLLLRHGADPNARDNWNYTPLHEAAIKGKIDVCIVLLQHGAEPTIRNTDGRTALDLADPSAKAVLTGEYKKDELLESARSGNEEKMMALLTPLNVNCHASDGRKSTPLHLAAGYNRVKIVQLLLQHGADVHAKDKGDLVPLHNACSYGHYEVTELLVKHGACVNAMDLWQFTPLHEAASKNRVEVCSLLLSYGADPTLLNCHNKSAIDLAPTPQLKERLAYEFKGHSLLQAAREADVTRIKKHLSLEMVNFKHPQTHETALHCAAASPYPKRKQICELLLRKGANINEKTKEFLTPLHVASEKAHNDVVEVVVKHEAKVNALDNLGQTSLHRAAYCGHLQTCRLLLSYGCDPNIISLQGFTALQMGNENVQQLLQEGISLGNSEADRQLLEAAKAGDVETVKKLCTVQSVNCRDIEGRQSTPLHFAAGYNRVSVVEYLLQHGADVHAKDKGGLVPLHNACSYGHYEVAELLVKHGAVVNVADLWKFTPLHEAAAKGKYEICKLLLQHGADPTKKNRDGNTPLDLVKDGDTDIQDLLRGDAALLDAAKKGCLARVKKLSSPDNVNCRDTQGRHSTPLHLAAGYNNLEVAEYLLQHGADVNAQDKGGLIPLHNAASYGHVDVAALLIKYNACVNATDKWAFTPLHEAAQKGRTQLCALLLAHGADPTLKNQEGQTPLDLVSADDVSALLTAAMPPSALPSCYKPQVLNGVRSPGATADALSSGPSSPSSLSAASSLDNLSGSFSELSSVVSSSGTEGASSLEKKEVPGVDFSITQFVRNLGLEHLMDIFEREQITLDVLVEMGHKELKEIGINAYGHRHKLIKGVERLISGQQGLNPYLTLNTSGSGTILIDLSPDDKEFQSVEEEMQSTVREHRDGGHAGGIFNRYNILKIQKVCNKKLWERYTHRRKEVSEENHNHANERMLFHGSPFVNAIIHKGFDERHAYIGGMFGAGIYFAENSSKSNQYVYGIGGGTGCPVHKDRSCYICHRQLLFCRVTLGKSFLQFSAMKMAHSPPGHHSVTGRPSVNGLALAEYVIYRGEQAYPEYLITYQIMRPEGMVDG

One may read the pIC50 as the negative decadic logarithm of the IC50, by convention in mol/L. Turning to `CCOc1ccc(-c2nnc([C@H]3C[C@H](NC(=O)c4cccc5cc[nH]c45)C3)n2-c2ccccc2F)nc1` [Example 115, N-((1S,3r)-3-(5-(5-ethoxypyridin-2-yl)-4-(2-fluorophenyl)-4H-1,2,4-triazol-3-yl)cyclobutyl)-1H-indole-7-carboxamide], the pIC50 was 7.24 in the assay on HEK293 (setting [1]) and 8.00 on TNKS2.

As to `O=C(N[C@H]1C[C@H](c2nnc(-c3ccncn3)n2-c2ccccc2Cl)C1)c1ccc(F)cc1` [Example 15, N-((1S,3r)-3-(4-(2-chlorophenyl)-5-(pyrimidin-4-yl)-4H-1,2,4-triazol-3-yl)cyclobutyl)-4-fluorobenzamide], the pIC50 with HEK293 (setting [1]) was 7.52; at TNKS2 it was 8.39. On to `O=C(N[C@H]1C[C@H](c2nnc(-c3nccs3)n2-c2ccccn2)C1)c1cccc2cccnc12` [Example 38, N-((1r,3r)-3-(4-(pyridin-2-yl)-5-(thiazol-2-yl)-4H-1,2,4-triazol-3-yl)cyclobutyl)quinoline-8-carboxamide], for which the pIC50 in the assay on HEK293 (setting [1]) is 7.34; at TNKS2 it was 7.35. As to `O=C(N[C@H]1C[C@H](c2nnc(-c3ccncn3)n2-c2ccccc2Cl)C1)c1ccnc2cccnc12` [Example 5, N-((1S,3r)-3-(4-(2-chlorophenyl)-5-(pyrimidin-4-yl)-4H-1,2,4-triazol-3-yl)cyclobutyl)-1,5-naphthyridine-4-carboxamide], the pIC50 in the assay on HEK293 (setting [2]) was 9.00; at TNKS2 it was 9.07. As for `CCOc1ccc(-c2nnc(C34CC(NC(=O)c5ccccn5)(C3)C4)n2-c2ccccc2)nc1` [Example 66, N-(3-(5-(5-ethoxypyridin-2-yl)-4-phenyl-4H-1,2,4-triazol-3-yl)bicyclo[1.1.1]pentan-1-yl)picolinamide], the pIC50 with HEK293 (setting [1]) is 6.91; at TNKS2 it was 7.46. With `O=C(N[C@H]1C[C@H](c2nnc(-c3ccccn3)n2-c2ccccc2F)C1)c1cc(F)cc2nccnc12` [Example 194, 7-fluoro-N-((1S,3r)-3-(4-(2-fluorophenyl)-5-(pyridin-2-yl)-4H-1,2,4-triazol-3-yl)cyclobutyl)quinoxaline-5-carboxamide], the pIC50 with HEK293 (setting [3]) was 9.10; at TNKS2 it was 8.70. `CS(=O)(=O)c1ccc(-c2nnc([C@H]3C[C@H](NC(=O)c4ccnc5cc(F)cnc45)C3)n2-c2ccccc2F)nc1` [Example 50, 7-fluoro-N-((1S,3r)-3-(4-(2-fluorophenyl)-5-(5-(methylsulfonyl)pyridin-2-yl)-4H-1,2,4-triazol-3-yl)cyclobutyl)-1,5-naphthyridine-4-carboxamide]: the figures for the pIC50 in the assay on HEK293 (setting [1]) and at TNKS2 were 9.64 and 8.80, respectively. As to `CCOc1ccc(-c2nnc([C@H]3C[C@H](NC(=O)c4cccc5c4OCCO5)C3)n2-c2ccccc2F)nc1` [Example 116, N-((1S,3r)-3-(5-(5-ethoxypyridin-2-yl)-4-(2-fluorophenyl)-4H-1,2,4-triazol-3-yl)cyclobutyl)-2,3-dihydrobenzo[b][1,4]dioxine-5-carboxamide], the figures for the pIC50 in the assay with HEK293 (setting [1]) and on TNKS2 were 7.33 and 8.35, respectively. Turning to `O=C(N[C@H]1C[C@H](c2nnc(-c3ccncn3)n2-c2ccccc2Cl)C1)c1ccncn1` [Example 11, N-((1S,3r)-3-(4-(2-chlorophenyl)-5-(pyrimidin-4-yl)-4H-1,2,4-triazol-3-yl)cyclobutyl)pyrimidine-4-carboxamide], the figures for the pIC50 with HEK293 (setting [1]) and at TNKS2 were 8.40 and 8.46, respectively. For `O=C(N[C@H]1C[C@H](c2nnc(-c3ccccn3)n2-c2ccccc2F)C1)c1cccc2nccnc12` [Example 193, N-((1S,3r)-3-(4-(2-fluorophenyl)-5-(pyridin-2-yl)-4H-1,2,4-triazol-3-yl)cyclobutyl)quinoxaline-5-carboxamide], the pIC50 in the assay on HEK293 (setting [3]) is 9.54; at TNKS2, 8.80.

For `CCOc1ccc(-c2nnc([C@H]3C[C@H](NC(=O)c4nc5ccccc5[nH]4)C3)n2-c2ccc(C)s2)nc1` [Example 143, N-((1r,3r)-3-(5-(5-ethoxypyridin-2-yl)-4-(5-methylthiophen-2-yl)-4H-1,2,4-triazol-3-yl)cyclobutyl)-1H-benzo[d]imidazole-2-carboxamide], the pIC50 is 7.03 in the assay on HEK293 (setting [1]) and 7.96 at TNKS2.

As for `CCOc1ccc(-c2nnc([C@H]3C[C@H](NC(=O)c4ccc(F)cc4)C3)n2-c2ccccc2F)nc1` [Example 56, N-((1S,3r)-3-(5-(5-ethoxypyridin-2-yl)-4-(2-fluorophenyl)-4H-1,2,4-triazol-3-yl)cyclobutyl)-4-fluorobenzamide], the pIC50 on TNKS2 was 8.00 and 8.70. For the compound `CCOc1ccc(-c2nnc([C@H]3C[C@H](NC(=O)c4cc5sccc5[nH]4)C3)n2-c2ccccc2F)nc1` [Example 149, N-((1S,3r)-3-(5-(5-ethoxypyridin-2-yl)-4-(2-fluorophenyl)-4H-1,2,4-triazol-3-yl)cyclobutyl)-4H-thieno[3,2-b]pyrrole-5-carboxamide], the pIC50 in the assay with HEK293 (setting [1]) is 7.57; on TNKS2, 8.13. As to `CCOc1ccc(-c2nnc([C@H]3C[C@H](NC(=O)c4cc(C)ccn4)C3)n2-c2ccccc2F)nc1` [Example 103, N-((1S,3r)-3-(5-(5-ethoxypyridin-2-yl)-4-(2-fluorophenyl)-4H-1,2,4-triazol-3-yl)cyclobutyl)-4-methylpicolinamide], the pIC50 was 7.60 in the assay with HEK293 (setting [1]) and 8.35 at TNKS2.

As for `O=C(N[C@H]1C[C@H](c2nnc(-c3ccncn3)n2-c2ccccc2Cl)C1)c1ccc(F)cn1` [Example 17, N-((1S,3r)-3-(4-(2-chlorophenyl)-5-(pyrimidin-4-yl)-4H-1,2,4-triazol-3-yl)cyclobutyl)-5-fluoropicolinamide], the pIC50 in the assay on HEK293 (setting [1]) is 8.62; at TNKS2, 8.57. The matching figures for `O=C(N[C@H]1C[C@H](c2nnc(-c3ccncn3)n2-c2ccccc2Cl)C1)c1cccc(F)n1` [Example 19, N-((1S,3r)-3-(4-(2-chlorophenyl)-5-(pyrimidin-4-yl)-4H-1,2,4-triazol-3-yl)cyclobutyl)-6-fluoropicolinamide]: 9.07 and 8.52.

As to `O=C(N[C@H]1C[C@H](c2nnc(-c3cnccn3)n2-c2ccccc2F)C1)c1ccccn1` [Example 91, N-((1S,3r)-3-(4-(2-fluorophenyl)-5-(pyrazin-2-yl)-4H-1,2,4-triazol-3-yl)cyclobutyl)picolinamide], the values for the pIC50 with HEK293 (setting [3]) and on TNKS2 were 6.45 and 6.55, respectively. On to `CCOc1ccc(-c2nnc(C34CC(NC(=O)c5ccnc6cc(F)cnc56)(C3)C4)n2-c2ccccc2)nc1` [Example 65, N-(3-(5-(5-ethoxypyridin-2-yl)-4-phenyl-4H-1,2,4-triazol-3-yl)bicyclo[1.1.1]pentan-1-yl)-7-fluoro-1,5-naphthyridine-4-carboxamide], for which the pIC50 in the assay with HEK293 (setting [1]) was 8.00; on TNKS2, 8.85. Consider `CCOc1ccc(-c2nnc([C@H]3C[C@H](NC(=O)c4cccc5cccnc45)C3)n2-c2ccccc2)nc1` [Example 71, N-((1r,3r)-3-(5-(5-ethoxypyridin-2-yl)-4-phenyl-4H-1,2,4-triazol-3-yl)cyclobutyl)quinoline-8-carboxamide], for which, in the assay with HEK293 (setting [1]), the pIC50 is 8.74. Take `CCOc1ccc(-c2nnc(C34CC(NC(=O)c5ccnc6cccnc56)(C3)C4)n2-c2ccccc2)nc1` [Example 64, N-(3-(5-(5-ethoxypyridin-2-yl)-4-phenyl-4H-1,2,4-triazol-3-yl)bicyclo[1.1.1]pentan-1-yl)-1,5-naphthyridine-4-carboxamide]: the pIC50 in the assay with HEK293 (setting [1]) is 8.52; at TNKS2, 8.85. Consider `CCOc1ccc(-c2nnc([C@H]3C[C@H](NC(=O)c4ccccn4)C3)n2-c2cccc(Cl)c2)nc1` [Example 140, N-((1r,3r)-3-(4-(3-chlorophenyl)-5-(5-ethoxypyridin-2-yl)-4H-1,2,4-triazol-3-yl)cyclobutyl)picolinamide], for which the pIC50 in the assay with HEK293 (setting [3]) was 7.08; at TNKS2, 7.89. For `CCOc1ccc(-c2nnc([C@H]3C[C@H](NC(=O)c4ccnc5cccnc45)C3)n2-c2ccc(C)s2)nc1` [Example 82, N-((1r,3r)-3-(5-(5-ethoxypyridin-2-yl)-4-(5-methylthiophen-2-yl)-4H-1,2,4-triazol-3-yl)cyclobutyl)-1,5-naphthyridine-4-carboxamide], the pIC50 was 9.09 in the assay on HEK293 (setting [3]) and 9.14 on TNKS2. Consider `CCOc1ccc(-c2nnc([C@H]3C[C@H](NC(=O)c4ccccn4)C3)n2-c2ccccc2F)nc1` [Example 54, N-((1S,3r)-3-(5-(5-ethoxypyridin-2-yl)-4-(2-fluorophenyl)-4H-1,2,4-triazol-3-yl)cyclobutyl)picolinamide], for which, in the assay on HEK293 (setting [2]), the pIC50 was 7.77. Turning to `O=C(N[C@H]1C[C@H](c2nnc(-c3ccncn3)n2-c2ccccc2Cl)C1)c1c(F)cccc1F` [Example 16, N-((1S,3r)-3-(4-(2-chlorophenyl)-5-(pyrimidin-4-yl)-4H-1,2,4-triazol-3-yl)cyclobutyl)-2,6-difluorobenzamide], the pIC50 in the assay with HEK293 (setting [1]) is 5.11.

In the case of `O=C(N[C@H]1C[C@H](c2nnc(-c3nccs3)n2-c2ccccc2F)C1)c1ccnc2cc(F)cnc12` [Example 29, 7-fluoro-N-((1S,3r)-3-(4-(2-fluorophenyl)-5-(thiazol-2-yl)-4H-1,2,4-triazol-3-yl)cyclobutyl)-1,5-naphthyridine-4-carboxamide], in the assay on HEK293 (setting [1]), the pIC50 was 8.89. Take `CCOc1ccc(-c2nnc([C@H]3C[C@H](NC(=O)c4cccc5nccnc45)C3)n2-c2ccccc2F)nc1` [Example 154, N-((1S,3r)-3-(5-(5-ethoxypyridin-2-yl)-4-(2-fluorophenyl)-4H-1,2,4-triazol-3-yl)cyclobutyl)quinoxaline-5-carboxamide]: in the assay on HEK293 (setting [3]), the pIC50 is 9.28.

As for `[2H]C([2H])([2H])C([2H])([2H])Oc1ccc(-c2nnc([C@H]3C[C@H](NC(=O)c4ccccn4)C3)n2-c2ccccc2F)nc1` [Example 93, N-((1S,3r)-3-(5-(5-(ethoxy-d5)pyridin-2-yl)-4-(2-fluorophenyl)-4H-1,2,4-triazol-3-yl)cyclobutyl)picolinamide], the pIC50 in the assay with HEK293 (setting [2]) was 8.02.
